Where “and” joins values, the source holds several entries; their conditions need not be identical. Identical values can stand only once. Like-named read-outs stand apart in the source and are kept apart here.
Tests used:
MCF-7 cancer cells = experiment: MTT cytotoxicity assay on MCF-7; type: cell-based; conditions: for LogIC50 MCF-7: Figure 4 curve fit, cell viability vs. log [conc. µM]; for IC50: MTT assay, 48 h, n = 3, NA: Non-Active, read-out: IC50 ± SD, MCF-7
Protocol: (§1) Both breast cancer (MCF-7) and normal breast (MCF-10A) cells were purchased from National Research Institute, Egypt, and maintained in complete media of RPMI-1640 medium L-Glutamine (Lonza Verviers SPRL, Belgium, cat#12-604F). Cells were incubated following standard tissue culture work. Cell viability was measured 48 h later, utilizing MTT colorimetric assay (Promega, Madison, WI, USA). Absorbance was consequently assessed (at 570 nm) using an ELISA microplate reader (BIO-RAD, model iMark, Tokyo, Japan). Using GraphPad Prism 7, the IC50 values were determined, and the viability at each concentration was determined in comparison to the control.

[1] = tested on: MCF-10A normal breast cells; experiment: MTT cytotoxicity assay on MCF-10A; type: cell-based; conditions: Homo sapiens, 48 h, n = 3, read-out: IC50 ± SD, MCF-10A
Protocol: as §1

EGFR Kinase = target: T1, EGFR Kinase (Homo sapiens, UniProt P00533); experiment: EGFR Kinase Assay Kit (BPS Bioscience); type: biochemical; conditions: mean ± SD of three replicates, five concentrations
T1 construct: purchased BPS Bioscience 40321
T1 sequence (P00533 25-1210): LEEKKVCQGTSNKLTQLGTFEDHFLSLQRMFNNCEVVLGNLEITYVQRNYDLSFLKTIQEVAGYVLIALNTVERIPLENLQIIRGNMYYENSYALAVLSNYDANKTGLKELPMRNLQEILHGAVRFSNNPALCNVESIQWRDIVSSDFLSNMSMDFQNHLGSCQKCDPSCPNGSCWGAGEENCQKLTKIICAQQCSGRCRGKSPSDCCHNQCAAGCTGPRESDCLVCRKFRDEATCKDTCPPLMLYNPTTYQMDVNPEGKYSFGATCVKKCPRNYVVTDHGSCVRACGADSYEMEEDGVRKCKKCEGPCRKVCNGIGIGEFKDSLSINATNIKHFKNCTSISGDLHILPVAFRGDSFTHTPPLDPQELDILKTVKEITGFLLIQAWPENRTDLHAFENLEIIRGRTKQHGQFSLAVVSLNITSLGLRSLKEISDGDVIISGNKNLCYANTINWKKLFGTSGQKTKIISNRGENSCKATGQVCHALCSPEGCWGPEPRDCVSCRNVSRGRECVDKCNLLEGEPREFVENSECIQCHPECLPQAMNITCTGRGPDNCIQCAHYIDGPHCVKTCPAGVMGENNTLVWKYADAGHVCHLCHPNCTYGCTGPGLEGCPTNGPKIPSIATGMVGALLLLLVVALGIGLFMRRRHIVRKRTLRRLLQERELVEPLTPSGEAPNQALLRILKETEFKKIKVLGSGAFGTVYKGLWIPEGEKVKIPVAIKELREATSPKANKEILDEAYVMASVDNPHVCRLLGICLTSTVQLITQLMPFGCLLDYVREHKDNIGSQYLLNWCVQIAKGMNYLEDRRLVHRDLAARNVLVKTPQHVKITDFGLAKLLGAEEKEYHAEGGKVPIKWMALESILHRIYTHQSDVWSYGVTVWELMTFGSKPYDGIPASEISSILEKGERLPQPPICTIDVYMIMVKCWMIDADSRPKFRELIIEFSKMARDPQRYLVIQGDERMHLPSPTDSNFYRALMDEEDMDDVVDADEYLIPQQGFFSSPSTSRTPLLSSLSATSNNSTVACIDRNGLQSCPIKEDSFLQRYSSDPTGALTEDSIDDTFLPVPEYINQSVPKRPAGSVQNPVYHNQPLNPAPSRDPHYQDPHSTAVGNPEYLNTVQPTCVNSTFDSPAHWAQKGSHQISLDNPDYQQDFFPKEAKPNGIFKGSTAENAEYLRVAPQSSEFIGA
Protocol: (§2) Compounds’ autophosphorylation percentage inhibition was computed according to the following equation: […] , then IC50 values were calculated using GraphPad prism software.

MCF-7 cells [2] = experiment: Annexin V/PI staining flow cytometry; type: cell-based; conditions: MCF-7, treated at IC50, 48 h; for late apoptosis: AV+/PI+; for early apoptosis: AV+/PI−; for apoptotic cell death (total): control 0.68%
Protocol: MCF-7 breast cancer cells were seeded into 6-well culture plates (3–5 × 10^5 cells/well) and incubated for 24 h. […] After that, the collection of the media supernatants and the cells was performed before undergoing rinsing with ice-cold PBS. The cells were suspended in 100 µL of annexin-binding buffer solution “25 mM CaCl2, 1.4 M NaCl, and 0.1 M Hepes/NaOH, pH 7.4” and incubated with “Annexin V-FITC solution (1:100) and propidium iodide (PI)” at a concentration equal 10 µg/mL in the dark for 30 min. Stained cells were then obtained by a Cytoflex FACS machine, and data analysis was performed using cytExpert software.

MCF-7 cells [3] = experiment: DNA content flow cytometry cell cycle analysis; type: cell-based; conditions: MCF-7 after treatment
Bax = experiment: RT-PCR gene expression in MCF-7 cells; type: cell-based; conditions: MCF-7, IC50, 48 h, normalized to β-actin, untreated = 1
Protocol: (§3) Furthermore, to explore the apoptotic pathway, gene expression of proapoptotic genes (P53, Bax, Caspapses-3,8,9) and antiapoptotic gene (Bcl-2) was evaluated using routine RT-PCR in the untreated and treated MCF-7 cells. Ct values were calculated to determine the relative genes expression in all samples by normalization to β-actin (housekeeping gene).

Bcl-2 = experiment: RT-PCR gene expression in MCF-7 cells; type: cell-based; conditions: MCF-7, IC50, 48 h, normalized to β-actin, untreated = 1
Protocol: as §3

Casp-3 = experiment: RT-PCR gene expression in MCF-7 cells; type: cell-based; conditions: MCF-7, IC50, 48 h, normalized to β-actin, untreated = 1
Protocol: as §3

Casp-8 = experiment: RT-PCR gene expression in MCF-7 cells; type: cell-based; conditions: MCF-7, IC50, 48 h, normalized to β-actin, untreated = 1
Protocol: as §3

Casp-9 = experiment: RT-PCR gene expression in MCF-7 cells; type: cell-based; conditions: MCF-7, IC50, 48 h, normalized to β-actin, untreated = 1
Protocol: as §3

P53 = experiment: RT-PCR gene expression in MCF-7 cells; type: cell-based; conditions: MCF-7, IC50, 48 h, normalized to β-actin, untreated = 1
Protocol: as §3

[4] = tested on: MCF-7 cells (Xenograft model); type: in vivo, mice; conditions: 10 mg/kg BW, IP
Excerpt: In vivo experiments for lethal dose (LD50), experimental design, tumor mass, blood parameters, histopathological examinations were accomplished as previously described. After inoculating the tumor cells, masses of the solid tumor started to appear ten days later. […] Animals from each group were sacrificed, and their blood was drawn to measure hemoglobin (Hb), red blood cell (RBC), white blood cell (WBC), and liver enzymes (ALT, AST, albumin, and total protein) levels.

[5] = type: in vivo
Excerpt: In vivo experiments for lethal dose (LD50), experimental design, tumor mass, blood parameters, histopathological examinations were accomplished as previously described. After inoculating the tumor cells, masses of the solid tumor started to appear ten days later. […]. Animals from each group were sacrificed, and their blood was drawn to measure hemoglobin (Hb), red blood cell (RBC), white blood cell (WBC), and liver enzymes (ALT, AST, albumin, and total protein) levels.

HER2 Kinase = target: T2, HER2 Kinase (Homo sapiens, UniProt P04626); experiment: HER2 Kinase Assay Kit (BPS Bioscience); type: biochemical; conditions: mean ± SD of three replicates, five concentrations
T2 construct: purchased BPS Bioscience 40721
T2 sequence (P04626 23-1255): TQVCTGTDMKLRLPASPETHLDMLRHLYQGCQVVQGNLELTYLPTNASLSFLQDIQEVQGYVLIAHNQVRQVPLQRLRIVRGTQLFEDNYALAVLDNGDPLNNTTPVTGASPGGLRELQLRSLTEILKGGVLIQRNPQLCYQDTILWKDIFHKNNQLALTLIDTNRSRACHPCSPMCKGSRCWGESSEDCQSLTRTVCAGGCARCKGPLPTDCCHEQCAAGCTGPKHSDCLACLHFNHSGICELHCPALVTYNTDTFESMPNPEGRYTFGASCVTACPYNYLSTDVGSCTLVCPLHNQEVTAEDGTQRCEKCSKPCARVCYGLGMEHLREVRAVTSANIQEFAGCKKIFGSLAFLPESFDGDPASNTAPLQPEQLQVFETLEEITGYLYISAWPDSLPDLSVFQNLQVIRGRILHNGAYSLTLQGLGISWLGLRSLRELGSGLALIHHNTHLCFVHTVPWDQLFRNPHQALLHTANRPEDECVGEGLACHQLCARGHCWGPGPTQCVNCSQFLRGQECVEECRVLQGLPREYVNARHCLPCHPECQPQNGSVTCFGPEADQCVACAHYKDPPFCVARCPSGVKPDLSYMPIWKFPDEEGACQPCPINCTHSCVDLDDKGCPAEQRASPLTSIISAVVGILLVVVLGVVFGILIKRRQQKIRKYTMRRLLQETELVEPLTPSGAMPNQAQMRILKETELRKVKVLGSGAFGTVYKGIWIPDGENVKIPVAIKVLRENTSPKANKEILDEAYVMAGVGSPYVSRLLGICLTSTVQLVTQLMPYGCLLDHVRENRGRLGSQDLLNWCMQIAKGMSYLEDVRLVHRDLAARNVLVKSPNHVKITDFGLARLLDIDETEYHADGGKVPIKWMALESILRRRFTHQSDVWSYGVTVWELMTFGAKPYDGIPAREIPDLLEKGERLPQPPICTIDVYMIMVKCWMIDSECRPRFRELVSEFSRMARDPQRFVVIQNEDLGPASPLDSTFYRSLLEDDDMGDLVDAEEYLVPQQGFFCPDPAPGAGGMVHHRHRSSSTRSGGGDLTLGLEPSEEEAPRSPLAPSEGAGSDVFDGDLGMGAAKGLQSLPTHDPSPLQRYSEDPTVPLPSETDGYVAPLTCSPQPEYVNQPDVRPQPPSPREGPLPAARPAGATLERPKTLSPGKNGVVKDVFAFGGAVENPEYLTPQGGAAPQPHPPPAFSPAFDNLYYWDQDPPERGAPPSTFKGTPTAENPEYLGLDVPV
Protocol: as §2

mutant EGFR (L858R) = tested on: mutant EGFR (L858R); design: method as in PMID 35427766; conditions: allosteric inhibitor; cited from earlier work
EGFR = tested on: EGFR; design: method as in PMID 33872924; conditions: reported phenylthiazole derivative; cited from earlier work

In the case of COc1ccc(C2CC(c3ccc(OC)c(OC)c3)=NN2c2nc(-c3ccccc3)cs2)cc1 (stereo not shown) [Compound 6e, 2-(3-(3,4-Dimethoxyphenyl)-5-(4-methoxyphenyl)-4,5-dihydro-1H-pyrazol-1-yl)-4-phenylthiazole], the “LogIC50 MCF-7” value (MCF-7 cancer cells) is reported as 0.862, the IC50 (MCF-7 cancer cells; Homo sapiens, MCF7, 48 h) is reported as 7.28 µM and the IC50 (MCF-7 cancer cells) is reported as 7.21 ± 0.48 µM. The IC50 [1] was at least 50 µM, the IC50 (EGFR Kinase) was 0.009 ± 0.001 µM and the late apoptosis (MCF-7 cells [2]) was 18.52%. The early apoptosis (MCF-7 cells [2]) was 9.47%, the “apoptotic cell death (total)” value (MCF-7 cells [2]) was 27.99% and the “percentage of cells in the S phase” value (MCF-7 cells [3]; control 34.18) was 44.52%. For the same molecule, the “Fold Change = 2^−ΔΔCT, Bax” value (Bax) was 6.39 fold and 6.39 ± 0.8 fold, the “Fold Change = 2^−ΔΔCT, Bcl-2” value (Bcl-2) was 0.22 ± 0.06 fold and the “Fold Change = 2^−ΔΔCT, Casp-3” value (Casp-3) was 7.12 fold and 7.12 ± 0.53 fold. The “Fold Change = 2^−ΔΔCT, Casp-8” value (Casp-8) was 1.71 fold and 1.71 ± 0.18 fold, the “Fold Change = 2^−ΔΔCT, Casp-9” value (Casp-9) was 8.19 fold and 8.19 ± 0.32 fold and the “Fold Change = 2^−ΔΔCT, P53” value (P53) was 4.85 ± 0.4 fold. For the same molecule, the tumor inhibition ratio ([4]; seven administrations) was 52.46%, the tumor volume ([4]; decreased from 89.8) was 28.4 mm^3 and the mice weight ([5]; 10 mg/kg BW, IP, MCF-7 control 32.28 g, normal 24.5 g) was 28.23 g. For the same molecule, the “histopathological examination of liver sections” value ([5]; mouse, in vivo) was “normal nuclei morphology in most of the cells with slight hydrophobic degeneration”.
With COc1ccc(C2=NN(c3nc(-c4ccc(F)cc4)cs3)C(c3ccc(Cl)cc3)C2)cc1OC (stereo not shown) [Compound 6k, 2-(5-(4-Chlorophenyl)-3-(3,4-dimethoxyphenyl)-4,5-dihydro-1H-pyrazol-1-yl)-4-(4-fluorophenyl)thiazole] the “LogIC50 MCF-7” value (MCF-7 cancer cells) was 0.9042, the IC50 (MCF-7 cancer cells; Homo sapiens, MCF7, 48 h) was 8.02 µM and the IC50 (MCF-7 cancer cells) was 8.02 ± 0.98 µM. The IC50 [1] was at least 50 µM, the IC50 (EGFR Kinase) was 0.014 ± 0.001 µM and the IC50 (HER2 Kinase) was 0.027 ± 0.002 µM. For the same molecule, the late apoptosis (MCF-7 cells [2]) was 14.38%, the early apoptosis (MCF-7 cells [2]) was 8.06% and the “apoptotic cell death (total)” value (MCF-7 cells [2]) was 22.44%. For the same molecule, the “percentage of cells in the G2/M phase” value (MCF-7 cells [3]; printed 'reduced by', control 9.7%) was 2.01%, the “Fold Change = 2^−ΔΔCT, Bax” value (Bax) was 5.24 fold and 5.24 ± 0.4 fold and the “Fold Change = 2^−ΔΔCT, Bcl-2” value (Bcl-2) was 0.41 fold and 0.41 ± 0.09 fold. For the same molecule, the “Fold Change = 2^−ΔΔCT, Casp-3” value (Casp-3) was 5.79 fold and 5.79 ± 0.4 fold, the “Fold Change = 2^−ΔΔCT, Casp-8” value (Casp-8) was 3.91 fold and 3.91 ± 0.42 fold and the “Fold Change = 2^−ΔΔCT, Casp-9” value (Casp-9) was 6.07 fold and 6.07 ± 0.23 fold. For the same molecule, the “Fold Change = 2^−ΔΔCT, P53” value (P53) was 3.91 fold and 3.91 ± 0.50 fold.
In the case of O=C(Nc1nccs1)C(c1cc(F)ccc1O)N1Cc2ccccc2C1=O (stereo not shown) [EAI045], the IC50 (mutant EGFR (L858R)) is given as 0.019 µM.
For COc1ccc(-c2csc(NC(=O)CSc3nc(-c4ccc(OC)cc4)c(C#N)c(=O)[nH]3)n2)cc1 [VI], the IC50 (EGFR) is listed as 0.19 µM.

Source: paper PMC9607164, “Rational Design, Synthesis and Biological Evaluation of Novel Pyrazoline-Based Antiproliferative Agents in MCF-7 Cancer Cells” (Pharmaceuticals, 2022)
